This is an account of results in patent US20230382894A1, “CCR4 ANTAGONISTS” (CHEMOCENTRYX, INC., priority 2022, published 2023).

Structures are written as SMILES. Bounds are passed on as bounds.

For assay [1], the target named is T1, CCR4 (Homo sapiens, UniProt P51679).
T1 construct: CEM Cells Endogenous Express CCR4; endogenous in cells; host or cells: CEM cells
T1 sequence (P51679 1-360): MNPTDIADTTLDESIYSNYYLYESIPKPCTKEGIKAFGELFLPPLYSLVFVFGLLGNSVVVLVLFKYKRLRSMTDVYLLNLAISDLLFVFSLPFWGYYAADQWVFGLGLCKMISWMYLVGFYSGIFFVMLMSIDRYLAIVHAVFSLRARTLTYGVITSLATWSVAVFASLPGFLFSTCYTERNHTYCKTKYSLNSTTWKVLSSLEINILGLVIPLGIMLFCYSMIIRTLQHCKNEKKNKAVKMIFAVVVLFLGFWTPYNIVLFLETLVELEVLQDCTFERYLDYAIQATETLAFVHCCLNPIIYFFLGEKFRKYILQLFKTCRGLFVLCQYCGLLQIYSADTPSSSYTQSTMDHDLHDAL
Put plainly: CEM cell chemotaxis (migration) assay to CCL22 (MDC) in HBSS buffer with 0.1% BSA. It is filed as cell-based. The following applies: CEM cells in HBSS with 0.1% BSA; recombinant human CCL22 0.1 nM; 37° C. 60 minutes. From the text:
CEM Cells Endogenous Express CCR4
A chemotaxis assay can be used to determine the efficacy of potential receptor antagonists at blocking the migration mediated through chemokine receptors, such as CCR4. This assay is routinely performed using the ChemoTX® microchamber system with a 5 μm pore-sized polycarbonate membrane.
HBSS: CEM Cells are collected by centrifugation at 400×g at room temperature, then suspended at 5 million/ml in Hanks' Balanced Salt Solution (HBSS) buffer with 0.1% BSA. The compound being tested is serially diluted from a maximum final concentration of 10 μM (or an equivalent volume of its solvent (DMSO)) and is then added to the cell/buffer mixture. Separately, recombinant human CCL22 (MDC) at its EC50 concentration (0.1 nM) is placed in the lower wells of the ChemoTX® plate. The 5-μm (pore size) polycarbonate membrane was placed onto the plate, and 20 μL of the cell/compound mixture is transferred onto each well of the membrane. The plates are incubated at 37° C. for 60 minutes, after which the polycarbonate membranes are removed and 5 μl of the DNA-intercalating dye CyQUANT (Invitrogen, Carlsbad, CA) is added to the lower wells. The amount of fluorescence, corresponding to the number of migrated cells, is measured using a Spectrafluor Plus plate reader (TECAN, San Jose, CA).

For assay [2], the target named is T1, CCR4. Briefly: CEM cell chemotaxis (migration) assay to CCL22 (MDC) in 100% Fetal Bovine Serum (FBS). The following applies: CEM cells in 100% FBS with 1% HEPEs; recombinant human CCL22 0.1 nM; 37° C. 60 minutes. It is filed as cell-based. The essentials: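 Endogenously CCR4-expressing CEM cells in 100% FBS with 1% HEPES were preincubated with serially diluted compound (top final 10 μM) and allowed to migrate through 5 μm polycarbonate membranes toward 0.1 nM human CCL22 (EC50) for 60 min at 37 °C. Migrated cells were quantified by CyQUANT fluorescence.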

`C[C@@H](Nc1nc(N2CCN(C(=O)C3CCN(C)C3)CC2)ncc1Cl)c1ccc(Cl)cc1Cl` (stereo partly shown) [Example 1.022]: the IC50 on CCR4 [1] and at CCR4 [2] was < 100 nM throughout.

With `C[C@@H](Nc1nc(N2CCN(C(=O)[C@H]3CCCN3C)CC2)ncc1Cl)c1ccc(Cl)cc1Cl` [Example 1.024], the IC50 at CCR4 [1] and at CCR4 [2] was < 100 nM in each case.

As to `C[C@@H](Nc1nc(N2CCN(C3CCCN(CC(=O)O)C3)CC2)ncc1Cl)c1ccc(Cl)cc1Cl` (stereo partly shown) [Example 1.063], the IC50 at CCR4 [1] and on CCR4 [2] was < 100 nM in each case.

Consider `C[C@@H]1CN(C(=O)[C@H]2CCC(=O)N2)CCN1c1ncc(Cl)c(N[C@H](C)c2ccc(Cl)cc2Cl)n1` [Example 1.078], for which the IC50 at CCR4 [1] and at CCR4 [2] was < 100 nM in each case.

As for `C[C@@H]1CN(c2ncc(Cl)c(N[C@H](C)c3ccc(Cl)cc3Cl)n2)CCN1C(=O)[C@H]1CCCN1` [Example 1.042], the IC50 on CCR4 [1] and at CCR4 [2] was < 100 nM each time.

Turning to `C[C@@H](Nc1nc(C2CCN(C3CCCN(CCC(=O)O)C3)CC2)ncc1Cl)c1ccc(Cl)cc1Cl` (stereo partly shown) [Example 1.077], the IC50 on CCR4 [1] and at CCR4 [2] was < 100 nM each time.

Take `C[C@@H](Nc1nc(N2CCC(N(C)C(=O)[C@H]3CCCN3)CC2)ncc1Cl)c1ccc(Cl)cc1Cl` [Example 1.008]: the IC50 at CCR4 [1] and at CCR4 [2] was < 100 nM each time.

In the case of `C[C@@H]1CN(c2ncc(Cl)c(N[C@H](C)c3ccc(Cl)cc3Cl)n2)[C@@H](C)CN1C(=O)[C@H]1CCCN1` [Example 1.034], the IC50 at CCR4 [1] and on CCR4 [2] was < 100 nM in each case.

As to `CC(Nc1nc(N2CCN(C(=O)[C@H]3CCC(=O)N3)CC2)ncc1Cl)c1cc(F)c(Cl)cc1Cl` (stereo partly shown) [Example 1.082], the IC50 on CCR4 [1] and on CCR4 [2] was < 100 nM throughout.

Regarding `C[C@@H](Nc1nc(N2CCN(C(=O)[C@H]3CCCN3)CC2)ncc1Cl)c1ccc(Cl)cc1Cl` [Example 1.053], the IC50 at CCR4 [1] and on CCR4 [2] was < 100 nM each time.

Take `C[C@@H](Nc1nc(N2CCC(C(=O)N3CC[C@H](O)[C@@H](N(C)C)C3)CC2)ncc1Cl)c1ccc(Cl)cc1Cl` [Example 1.133]: the half-maximal inhibitory concentration (IC50) at CCR4 [1] was 100 to 1000 nM; at CCR4 [2], > 1000 nM.

As for `C[C@@H](Nc1nc(N2CCC(NC(=O)[C@H]3CC(F)(F)CN3)CC2)ncc1Cl)c1ccc(Cl)cc1Cl` [Example 1.136], the IC50 at CCR4 [1] and on CCR4 [2] was > 1000 nM throughout.

Turning to `C[C@H](Nc1nc(N2CCN(C(=O)[C@@H]3CCC(=O)N3)CC2)ncc1Cl)c1ccc(Cl)cc1Cl` [Example 1.253], the IC50 on CCR4 [1] and on CCR4 [2] was > 1000 nM throughout.

As to `C[C@@H](Nc1nc(C2=CCN([C@H]3CCCN(CCC(N)=O)C3)CC2)ncc1Cl)c1ccc(Cl)cc1Cl` [Example 1.056], the IC50 at CCR4 [1] and at CCR4 [2] was < 100 nM in each case.

Take `C[C@@H](Nc1nc(N2CCN(C(=O)[C@H]3CCC(=O)N3)CC2)ncc1Cl)c1ccc(Cl)cc1Cl` [Example 1.148]: the IC50 at CCR4 [1] and at CCR4 [2] was < 100 nM each time.

On to `C[C@@H](Nc1nc(C2=CCN(C(=O)[C@H]3CCCN3)CC2)ncc1Cl)c1ccc(Cl)cc1Cl` [Example 1.027], for which the IC50 at CCR4 [1] and at CCR4 [2] was < 100 nM in each case.

On to `C[C@@H](Nc1nc(C2=CCN(C(=O)CN(C)C)CC2)ncc1Cl)c1ccc(Cl)cc1Cl` [Example 1.020], for which the IC50 at CCR4 [1] and at CCR4 [2] was < 100 nM throughout.

For `C[C@@H](Nc1nc(N2CCN(C(=O)[C@H]3CCCN3C(=O)OC(C)(C)C)CC2)ncc1Cl)c1ccc(Cl)cc1Cl` [Example 1.051], the IC50 on CCR4 [1] and at CCR4 [2] was 100 to 1000 nM each time.

As for `C[C@@H](Nc1nc(N2CC[C@H](NC(=O)[C@H]3CCCN3)[C@H](O)C2)ncc1Cl)c1ccc(Cl)cc1Cl` [Example 1.014], the half-inhibitory concentration (IC50) on CCR4 [1] and on CCR4 [2] was < 100 nM each time.

`C[C@@H](Nc1nc(N2CCN(C(=O)[C@@H]3NC(=O)[C@@H]4C[C@@H]43)CC2)ncc1Cl)c1ccc(Cl)cc1Cl` [Example 1.251]: the IC50 at CCR4 [1] and on CCR4 [2] was < 100 nM each time.

As for `C[C@@H](Nc1nc(N2CCN(C(=O)[C@H]3CCC(=O)N3)CC2)ncc1Cl)c1ccccn1` [Example 1.256], the IC50 on CCR4 [1] and at CCR4 [2] was > 1000 nM throughout.

Consider `C[C@@H](Nc1nc(N2CCN(C(=O)[C@H]3CCC(=O)N3)CC2)ncc1Cl)c1cc(Cl)cc(Cl)c1` [Example 1.083], for which the half-maximal inhibitory concentration (IC50) on CCR4 [1] and at CCR4 [2] was > 1000 nM throughout.

Regarding `C[C@@H](Nc1nc(N2CCN(C3CCCNC3)CC2)ncc1Cl)c1ccc(Cl)cc1Cl` (stereo partly shown) [Example 1.055], the IC50 at CCR4 [1] and at CCR4 [2] was < 100 nM throughout.

Turning to `C[C@@H](Nc1nc(N2CCN(C(=O)[C@H]3CCN3)CC2)ncc1Cl)c1ccc(Cl)cc1Cl` [Example 1.033], the IC50 on CCR4 [1] and at CCR4 [2] was < 100 nM each time.

For `Cc1nc(N2CCN(C(=O)[C@H]3CCC(=O)N3)CC2)nc(N[C@H](C)c2ccc(Cl)cc2Cl)c1Cl` [Example 1.113], the IC50 at CCR4 [1] and on CCR4 [2] was < 100 nM each time.

Regarding `C[C@@H](Nc1nc(N2CCN(C(=O)[C@H]3CCCN3CCO)CC2)ncc1Cl)c1ccc(Cl)cc1Cl` [Example 1.046], the IC50 on CCR4 [1] and on CCR4 [2] was < 100 nM throughout.

On to `C[C@@H]1CN(c2ncc(Cl)c(N[C@H](C)c3ccc(Cl)cc3Cl)n2)CCN1C(=O)N1CCNCC1` [Example 1.036], for which the IC50 on CCR4 [1] and at CCR4 [2] was > 1000 nM in each case.

Turning to `C[C@@H](Nc1nc(N2CCN(C3CN[C@H](C(=O)O)C3)CC2)ncc1Cl)c1ccc(Cl)cc1Cl` (stereo partly shown) [Example 1.153], the IC50 on CCR4 [1] and on CCR4 [2] was > 1000 nM throughout.

For the compound `C[C@@H](Nc1nc(N2CCN(C(=O)[C@H]3CCS(=O)(=O)N3)CC2)ncc1Cl)c1ccc(Cl)cc1Cl` [Example 1.079], the IC50 at CCR4 [1] and on CCR4 [2] was < 100 nM in each case.

As for `C[C@@H](Nc1nc(N2CCN(C(=O)[C@@H]3CCNC3)CC2)ncc1Cl)c1ccc(Cl)cc1Cl` [Example 1.070], the half-inhibitory concentration (IC50) on CCR4 [1] and at CCR4 [2] was < 100 nM each time.

On to `Cc1nc(N2CCN(C(=O)[C@H]3CCCN3)CC2)nc(N[C@H](C)c2ccc(Cl)cc2Cl)c1Cl` [Example 1.049], for which the IC50 at CCR4 [1] and on CCR4 [2] was < 100 nM each time.

`CNC1CCN(C(=O)N2CCN(c3ncc(Cl)c(N[C@H](C)c4ccc(Cl)cc4Cl)n3)CC2)C1` (stereo partly shown) [Example 1.005]: the 50% inhibitory concentration (IC50) at CCR4 [1] and at CCR4 [2] was < 100 nM in each case.

As to `C[C@@H](Nc1nc(N2CCC(NC(=O)[C@@H]3CNCCO3)CC2)ncc1Cl)c1ccc(Cl)cc1Cl` [Example 1.131], the values for the 50% inhibitory concentration (IC50) at CCR4 [1] and on CCR4 [2] were 100 to 1000 nM and > 1000 nM, respectively.

Consider `C[C@@H](Nc1nc(N2CCC(NC(=O)C3CCN(C)C3)CC2)ncc1Cl)c1ccc(Cl)cc1Cl` (stereo partly shown) [Example 1.009], for which the IC50 at CCR4 [1] and on CCR4 [2] was < 100 nM in each case.

Turning to `C[C@@H](Nc1nc(N2CCC(NC(=O)[C@@H]3CCN(C)C3)CC2)ncc1Cl)c1ccc(Cl)cc1Cl` [Example 1.067], the half-inhibitory concentration (IC50) on CCR4 [1] is < 100 nM; at CCR4 [2], 100 to 1000 nM.

For `CNC1CCN(C(=O)C2CCN(c3ncc(Cl)c(N[C@H](C)c4ccc(Cl)cc4Cl)n3)CC2)C1` (stereo partly shown) [Example 1.068], the IC50 on CCR4 [1] and on CCR4 [2] was < 100 nM in each case.

As for `C[C@@H](Nc1nc(N2CCC(C3CCCN(CCC(=O)O)C3)CC2)ncc1Cl)c1ccc(Cl)cc1Cl` (stereo partly shown) [Example 1.035], the IC50 at CCR4 [1] and on CCR4 [2] was < 100 nM throughout.

Turning to `C[C@@H](Nc1nc(N2CCN(C(=O)C(C)(C)N)CC2)ncc1Cl)c1ccc(Cl)cc1Cl` [Example 1.040], the IC50 at CCR4 [1] and on CCR4 [2] was < 100 nM each time.

For the compound `C[C@@H](Nc1nc(C2=CCN([C@H]3CCCN(CCC(=O)O)C3)CC2)ncc1Cl)c1ccc(Cl)cc1Cl` [Example 1.057], the IC50 at CCR4 [1] and at CCR4 [2] was < 100 nM in each case.

As to `C[C@@H](Nc1nc(N2CCN(C(=O)[C@H]3CCCN3)CC2)ncc1Cl)c1ccc(Cl)cc1F` [Example 1.004], the IC50 on CCR4 [1] and at CCR4 [2] was < 100 nM throughout.

For the compound `C[C@@H](Nc1nc(N2CC[C@@H](NC(=O)[C@H]3CCCN3)[C@@H](O)C2)ncc1Cl)c1ccc(Cl)cc1Cl` [Example 1.028], the IC50 at CCR4 [1] and at CCR4 [2] was < 100 nM each time.
